Assay results reported in patent US8354433B2, “Anti-inflammatory agents as virostatic compounds” (4SC AG, priority 2009, dated 2013).
Where two headings read alike, the source gives them in different places.

Experiments:
[1] = target: dihydroorotate dehydrogenase (DHODH) (Homo sapiens, UniProt Q02127); assay: DHODH inhibition, in vitro assay; type: biochemical
HIV-191US005 = assay: Anti-HIV efficacy in fresh human PBMCs (RT activity and p24 ELISA); type: cell-based, HIV-1; settings: Human immunodeficiency virus 1, PBMC, 168 h; for EC50: read-out: EC50/nM; for EC90: read-out: EC90/nM
[2] = tested on: HCV subgenomic replicon of genotype 1b; assay: microbe, parasite or virus in culture; type: cell-based; settings: Hepatitis C virus, 24 h, read-out: Antiviral Activity EC50/nM
human PBMCs = assay: MTS cytotoxicity in human PBMCs; settings: seven days
[3] = tested on: ET cell line (luc-ubi-neo/ET), Huh7; assay: CytoTox-1 cytotoxicity in ET cells; settings: 24 h, cell unit μM
HBV = assay: Anti-HBV evaluation with HepG2 2.2.15 cells (extracellular HBV DNA, qPCR); type: cell-based; settings: Hepatitis B virus, 144 h; HepG2 2.2.15 cells, HBV DNA, six days; read-out: Antiviral Activity EC50
Description: Compounds were solubilized in DMSO in a concentration of 40 mM. (−)-2′-Desoxy-3′-thiacytidin (3TC) was used as the positive antiviral controls. The high-test concentrations were 10 μM for 4SC compounds and 1 μM for 3TC.
Briefly, HepG2-2.2.15 cells were plated in 96-well microtiter plates. Only the interior wells were utilized to reduce “edge effects” observed during cell culture; the exterior wells were filled with complete medium to help minimize sample evaporation. After 16-24 hours the confluent monolayer of HepG2-2.2.15 cells was washed and the medium was replaced with complete medium containing various concentrations of a test compound in triplicate. 3TC was used as the positive control, while media alone was added to cells as a negative control. Three days later the culture medium was replaced with fresh medium containing the appropriately diluted drug. Six days following the initial administration of the test compound, the cell culture supernatant was collected, treated with pronase and then used in a quantitative qPCR TaqMan assay. Antiviral activity was calculated from the reduction in HBV DNA levels (IC50). Cell Titer 96 ®AQueous One Solution Cell Proliferation kit (Promega, Madison, Wis.) was used to measure cell viability which is used to calculate toxicity (TC50). The therapeutic index (TI) was calculated as TC50/IC50

[4] = Cell viability in HepG2-2.2.15 cells (Cell Titer 96); type: cell-based; settings: human, six days, read-out: TC50
Description: Anti-HBV assay was performed as described in Korba, B F and Milman, G., 1991 (A cell culture assay for compound which inhibits hepatitis B virus replication. Antiviral Res. 15: 217-228) and in Korba, B F and Gerin, J L., 1992 (Use of a standardized cell culture assay to assess activities of nucleoside analogs again hepatitis B virus replication. Antiviral Res. 19: 55-70) with modifications to measure extracellular HBV DNA copy with real-time PCR (qPCR/TaqMan). Briefly, HepG2-2.2.15 cells were plated in 96-well microtiter plates. Only the interior wells were utilized to reduce “edge effects” observed during cell culture; the exterior wells were filled with complete medium to help minimize sample evaporation. After 16-24 hours the confluent monolayer of HepG2-2.2.15 cells was washed and the medium was replaced with complete medium containing various concentrations of a test compound in triplicate. 3TC was used as the positive control, while media alone was added to cells as a negative control. Three days later the culture medium was replaced with fresh medium containing the appropriately diluted drug. Six days following the initial administration of the test compound, the cell culture supernatant was collected, treated with pronase and then used in a quantitative qPCR TaqMan assay. Antiviral activity was calculated from the reduction in HBV DNA levels (IC50). Cell Titer 96 ®AQueous One Solution Cell Proliferation kit (Promega, Madison, Wis.) was used to measure cell viability which is used to calculate toxicity (TC50). The therapeutic index (TI) was calculated as TC50/IC50

RSV Strain Long = assay: microbe, parasite or virus in culture; type: cell-based; settings: human respiratory syncytial virus, Vero, read-out: Antiviral Activity EC50
DENV Type 2 (New Guinea) = assay: microbe, parasite or virus in culture; type: cell-based; settings: Dengue virus, Vero C1008, read-out: Antiviral Activity EC50
YFV Strain 17D = assay: microbe, parasite or virus in culture; type: cell-based; settings: Yellow fever virus, Vero, read-out: Antiviral Activity EC50
WNV Strain NY-99 = assay: microbe, parasite or virus in culture; type: cell-based; settings: West Nile virus, Vero, read-out: Antiviral Activity EC50
Influenza Virus (H7N7) = assay: microbe, parasite or virus in culture; type: cell-based, avian influenza virus (Fowl Plaque Virus; settings: unidentified influenza virus, H7N7, A549, 16 h; for inhibition at 30 µM: read-out: Antiviral Activity % Inhibition
[5] = Table 2, read-out: DHODH IC50/nM
[6] = Table 8, read-out: DHODH IC50/nM

dihydroorotate dehydrogenase (DHODH), sequence (Q02127 whole entry): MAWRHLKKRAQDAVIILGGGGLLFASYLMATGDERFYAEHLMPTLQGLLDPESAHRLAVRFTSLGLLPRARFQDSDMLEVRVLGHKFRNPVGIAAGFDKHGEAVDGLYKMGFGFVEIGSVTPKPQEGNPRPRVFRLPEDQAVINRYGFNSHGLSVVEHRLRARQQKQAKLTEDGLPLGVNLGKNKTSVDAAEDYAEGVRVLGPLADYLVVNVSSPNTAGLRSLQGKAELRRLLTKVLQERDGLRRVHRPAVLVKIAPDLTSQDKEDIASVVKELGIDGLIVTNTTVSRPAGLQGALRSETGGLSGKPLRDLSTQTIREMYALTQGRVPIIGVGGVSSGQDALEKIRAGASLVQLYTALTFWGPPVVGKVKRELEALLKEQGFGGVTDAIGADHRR

Row | SMILES | IC50 ([1]; DHODH IC50/nM, Table 1) [nM] | EC50 (HIV-191US005; Endpoint RT, seven days) [nM] | EC90 (HIV-191US005; Endpoint RT, seven days) [nM] | EC50 (HIV-191US005; Endpoint p24, seven days) [nM] | EC90 (HIV-191US005; Endpoint p24, seven days) [nM] | TC50/nM (human PBMCs) [nM] | IC50 [1, 6] [nM] | inhibition at 30 µM (Influenza Virus (H7N7)) [%] | further results
1 | O=C(O)C1=C(C(=O)Nc2c(F)cc(-c3ccccc3Cl)cc2F)CSC1 [Compound 2, 4-(2′-Chloro-3,5-difluoro-biphenyl-4-ylcarbamoyl)-2,5-dihydro-thiophene-3-carboxylic acid] | < 20 | 920 | 2590 | 1380 | 2770 | >100000 | – | – | IC50 [1, 5]: < 20 nM; EC50 [2]: 680 nM; TC50 [3]: >100 µM
2 | O=C(O)C1=C(C(=O)Nc2ccc(OCc3c(F)cccc3Cl)c(Cl)c2)CCC1 [Compound 3, 2-[3-Chloro-4-(2-chloro-6-fluoro-benzyloxy)-phenylcarbamoyl]-cyclopent-1-enecarboxylic acid] | < 20 | 190 | 700 | 190 | 630 | 44800 | – | – | IC50 ([1]; DHODH IC50/nM, Table 7): < 20 nM; IC50 [1, 5]: < 20 nM; IC50 ([1]; Table 3, read-out: DHODH IC50/nM): < 20 nM; IC50 ([1]; Table 4, read-out: DHODH IC50/nM): < 20 nM; IC50 ([1]; Table 5, read-out: DHODH IC50/nM): < 20 nM; IC50 ([1]; Table 6, read-out: DHODH IC50/nM): < 20 nM; EC50 [2]: 500 nM; EC50 (HBV): > 10000 nM; CC50 at 6 days [4]: > 10000 nM; EC50 (RSV Strain Long): > 10000 nM; EC50 (DENV Type 2 (New Guinea)): 83 nM; EC50 (YFV Strain 17D): 2190 nM; EC50 (WNV Strain NY-99): > 10000 nM
3 | O=C(Nc1ccc(-c2ccccc2)cc1)Nc1ccccc1C(=O)O [Compound 7, 2-(3-biphenyl-4-ylureido)benzoic acid] | < 20 | 50 | 210 | 60 | 230 | >100000 | – | – | –
4 | COc1cccc(-c2c(F)c(F)c(NC(=O)c3occc3C(=O)O)c(F)c2F)c1 [Compound 8, 2-(2,3,5,6-tetrafluoro-3′-methoxybiphenyl-4-ylcarbamoyl)furan-3-carboxylic acid] | < 20 | 760 | 2700 | 840 | 2970 | >100000 | < 20 | > 50 | –
5 | CCOc1cccc(-c2cc(F)c(NC(=O)c3cscc3C(=O)O)c(F)c2)c1 [Compound 9, 4-(3′-ethoxy-3,5-difluorobiphenyl-4-ylcarbamoyl)thiophene-3-carboxylic acid] | – | – | – | – | – | – | < 20 | > 80 | –
6 | COc1cccc(-c2c(F)c(F)c(NC(=O)C3=C(C(=O)O)CCC3)c(F)c2F)c1 [Compound 10, 2-(2,3,5,6-tetrafluoro-3′-methoxybiphenyl-4-ylcarbamoyl)cyclopent-1-enecarboxylic acid] | – | – | – | – | – | – | – | > 80 | –
7 | COc1ccccc1-c1c(F)c(F)c(NC(=O)C2=C(C(=O)O)CCC2)c(F)c1F [Compound 11, 2-(2,3,5,6-tetrafluoro-2′-methoxybiphenyl-4-ylcarbamoyl)cyclopent-1-enecarboxylic acid] | – | – | – | – | – | – | < 20 | > 90 | EC50 (Influenza Virus (H7N7)): ~3000 nM
8 | O=C(O)C1=C(C(=O)Nc2c(F)cc(-c3cccc(OC(F)(F)F)c3)cc2F)CCC1 [Compound 12, 2-(3,5-difluoro-3′-(trifluoromethoxy)biphenyl-4-ylcarbamoyl)cyclopent-1-enecarboxylic acid] | – | – | – | – | – | – | 20 to 200 | > 80 | –
9 | O=C(O)C1=C(C(=O)Nc2c(F)c(F)c(-c3cccc(OC(F)(F)F)c3)c(F)c2F)C(O)CC1 (centres unmarked) [Compound 13, 3-hydroxy-2-(2,3,5,6-tetrafluoro-3′-(trifluoromethoxy)biphenyl-4-ylcarbamoyl)cyclopent-1-enecarboxylic acid] | – | – | – | – | – | – | < 20 | > 50 | –
10 | COc1ccc(-c2ccc(NC(=O)C3=C(C(=O)O)CCC3)cc2Cl)cc1 [Compound 14, 2-(2-chloro-4′-methoxybiphenyl-4-ylcarbamoyl)cyclopent-1-enecarboxylic acid] | 20 to 200 | 5240 | 12200 | 5180 | 16600 | >100000 | 20 to 200 | > 50 | –
11 | O=C(O)c1cscc1C(=O)Nc1c(F)cc(-c2cccc(OC(F)(F)F)c2)cc1F [Compound 15, 4-(3,5-difluoro-3′-(trifluoromethoxy)biphenyl-4-ylcarbamoyl)thiophene-3-carboxylic acid] | – | – | – | – | – | – | < 20 | > 80 | –
12 | O=C(O)C1=C(C(=O)Nc2ccc(OCc3c(F)cccc3Cl)c(F)c2)CCC1 [Compound 21, 2-[4-(2-Chloro-6-fluoro-benzyloxy)-3-fluoro-phenylcarbamoyl]-cyclopent-1-enecarboxylic acid] | – | – | – | – | – | – | – | – | IC50 [1, 5]: 20 to 200 nM; EC50 [2]: 1740 nM; TC50 [3]: >30 µM
13 | O=C(O)C1=C(C(=O)Nc2cc(Cl)c(OCc3c(F)cccc3Cl)c(Cl)c2)CCC1 [Compound 22, 2-[3,5-Dichloro-4-(2-chloro-6-fluoro-benzyloxy)-phenylcarbamoyl]-cyclopent-1-enecarboxylic acid] | – | – | – | – | – | – | – | – | IC50 [1, 5]: 20 to 200 nM; EC50 [2]: 1760 nM; TC50 [3]: >30 µM
14 | CN(C)c1ccc(-c2ccc(NC(=O)C3=C(C(=O)O)CCC3)cc2Cl)cc1 [Compound 23, 2-(2-Chloro-4′-dimethylamino-biphenyl-4-ylcarbamoyl)-cyclopent-1-enecarboxylic acid] | 20 to 200 | 1070 | 3480 | 1000 | 3720 | >100000 | – | – | –
15 | COc1cccc(-c2ccc(NC(=O)c3ccsc3C(=O)O)c(F)c2)c1 [Compound 24, 3-(3-Fluoro-3′-methoxy-biphenyl-4-ylcarbamoyl)-thiophene-2-carboxylic acid] | – | 3970 | 9070 | 4540 | 12300 | 55800 | – | – | IC50 [1]: 20 to 200 nM
16 | O=C(O)C1=C(C(=O)Nc2c(F)c(F)c(-c3cccc(OC(F)(F)F)c3)c(F)c2F)CSC1 [Compound 25, 4-(2,3,5,6-Tetrafluoro-3′-trifluoromethoxy-biphenyl-4-ylcarbamoyl)-2,5-dihydro-thiophene-3-carboxylic acid] | < 20 | 1560 | 3020 | 1180 | 3160 | >100000 | – | – | –
